Laboratory results: patent US9212182B2, “Bicyclic sulfonamide compounds as sodium channel inhibitors” (AMGEN INC., priority 2013, dated 2015)
Read-outs that look alike come from different tables or passages of the source.

Experiments:
Nav 1.7 = Nav 1.7 (Homo sapiens (Human), UniProt Q15858); experiment: in-vitro Nav 1.7 PX (IC50); format: cell-based
Nav 1.5 = Nav 1.5 (Homo sapiens (Human), UniProt Q14524); experiment: in-vitro Nav 1.5 PX (IC50); conditions: read-out: Nav 1.5 PX IC50
[1] = in-vitro Nav 1.5 PX data (PatchXpress)

Nav 1.7, sequence (Q15858 whole entry): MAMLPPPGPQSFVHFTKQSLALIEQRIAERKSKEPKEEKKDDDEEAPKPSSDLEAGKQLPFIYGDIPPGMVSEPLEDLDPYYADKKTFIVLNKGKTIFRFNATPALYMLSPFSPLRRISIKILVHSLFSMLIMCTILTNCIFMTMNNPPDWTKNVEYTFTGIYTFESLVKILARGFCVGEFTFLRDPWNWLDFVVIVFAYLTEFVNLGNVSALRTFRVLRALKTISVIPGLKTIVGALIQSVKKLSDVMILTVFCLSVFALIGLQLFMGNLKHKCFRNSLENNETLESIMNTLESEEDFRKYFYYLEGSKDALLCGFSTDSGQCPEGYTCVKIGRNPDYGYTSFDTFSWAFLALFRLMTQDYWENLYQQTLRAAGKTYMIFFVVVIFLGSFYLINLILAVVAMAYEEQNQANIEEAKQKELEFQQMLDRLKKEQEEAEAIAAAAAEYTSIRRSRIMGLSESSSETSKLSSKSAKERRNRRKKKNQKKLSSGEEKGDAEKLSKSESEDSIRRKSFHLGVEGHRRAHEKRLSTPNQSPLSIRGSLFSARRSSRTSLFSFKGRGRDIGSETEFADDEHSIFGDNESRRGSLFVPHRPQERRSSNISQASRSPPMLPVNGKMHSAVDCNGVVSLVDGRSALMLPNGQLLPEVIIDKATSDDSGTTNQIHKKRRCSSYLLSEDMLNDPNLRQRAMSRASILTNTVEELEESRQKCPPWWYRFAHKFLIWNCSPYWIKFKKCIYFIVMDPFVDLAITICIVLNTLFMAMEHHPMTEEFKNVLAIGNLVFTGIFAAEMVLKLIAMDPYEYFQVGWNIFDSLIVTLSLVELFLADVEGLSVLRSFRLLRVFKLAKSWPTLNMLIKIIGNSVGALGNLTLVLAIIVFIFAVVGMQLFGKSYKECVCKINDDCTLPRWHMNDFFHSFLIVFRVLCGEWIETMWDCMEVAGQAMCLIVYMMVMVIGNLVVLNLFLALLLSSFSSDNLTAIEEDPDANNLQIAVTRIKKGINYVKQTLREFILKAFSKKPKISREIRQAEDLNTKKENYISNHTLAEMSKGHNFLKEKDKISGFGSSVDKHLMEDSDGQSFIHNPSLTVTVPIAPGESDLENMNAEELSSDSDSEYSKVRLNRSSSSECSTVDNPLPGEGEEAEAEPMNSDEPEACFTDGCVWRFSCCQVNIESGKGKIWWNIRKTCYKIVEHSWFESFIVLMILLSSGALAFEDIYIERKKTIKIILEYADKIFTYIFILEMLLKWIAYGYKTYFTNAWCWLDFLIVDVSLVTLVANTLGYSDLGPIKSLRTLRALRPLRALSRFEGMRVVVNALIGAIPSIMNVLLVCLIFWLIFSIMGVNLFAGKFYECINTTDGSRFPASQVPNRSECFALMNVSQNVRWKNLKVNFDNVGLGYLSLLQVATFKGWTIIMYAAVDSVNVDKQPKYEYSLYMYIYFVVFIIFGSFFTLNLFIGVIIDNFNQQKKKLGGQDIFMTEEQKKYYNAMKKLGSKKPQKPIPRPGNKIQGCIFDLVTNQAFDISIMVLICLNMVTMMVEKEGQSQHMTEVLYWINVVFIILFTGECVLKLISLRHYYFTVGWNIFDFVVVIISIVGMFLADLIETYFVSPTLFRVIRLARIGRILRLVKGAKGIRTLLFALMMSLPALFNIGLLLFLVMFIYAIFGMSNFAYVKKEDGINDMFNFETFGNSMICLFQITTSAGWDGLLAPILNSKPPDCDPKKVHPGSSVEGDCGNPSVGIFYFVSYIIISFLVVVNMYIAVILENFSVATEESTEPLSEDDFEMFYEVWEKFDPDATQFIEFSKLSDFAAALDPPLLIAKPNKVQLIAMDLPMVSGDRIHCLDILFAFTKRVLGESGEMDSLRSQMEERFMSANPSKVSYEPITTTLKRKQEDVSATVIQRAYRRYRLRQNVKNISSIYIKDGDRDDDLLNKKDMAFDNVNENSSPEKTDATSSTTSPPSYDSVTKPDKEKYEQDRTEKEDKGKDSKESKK
Nav 1.5, sequence (Q14524 whole entry): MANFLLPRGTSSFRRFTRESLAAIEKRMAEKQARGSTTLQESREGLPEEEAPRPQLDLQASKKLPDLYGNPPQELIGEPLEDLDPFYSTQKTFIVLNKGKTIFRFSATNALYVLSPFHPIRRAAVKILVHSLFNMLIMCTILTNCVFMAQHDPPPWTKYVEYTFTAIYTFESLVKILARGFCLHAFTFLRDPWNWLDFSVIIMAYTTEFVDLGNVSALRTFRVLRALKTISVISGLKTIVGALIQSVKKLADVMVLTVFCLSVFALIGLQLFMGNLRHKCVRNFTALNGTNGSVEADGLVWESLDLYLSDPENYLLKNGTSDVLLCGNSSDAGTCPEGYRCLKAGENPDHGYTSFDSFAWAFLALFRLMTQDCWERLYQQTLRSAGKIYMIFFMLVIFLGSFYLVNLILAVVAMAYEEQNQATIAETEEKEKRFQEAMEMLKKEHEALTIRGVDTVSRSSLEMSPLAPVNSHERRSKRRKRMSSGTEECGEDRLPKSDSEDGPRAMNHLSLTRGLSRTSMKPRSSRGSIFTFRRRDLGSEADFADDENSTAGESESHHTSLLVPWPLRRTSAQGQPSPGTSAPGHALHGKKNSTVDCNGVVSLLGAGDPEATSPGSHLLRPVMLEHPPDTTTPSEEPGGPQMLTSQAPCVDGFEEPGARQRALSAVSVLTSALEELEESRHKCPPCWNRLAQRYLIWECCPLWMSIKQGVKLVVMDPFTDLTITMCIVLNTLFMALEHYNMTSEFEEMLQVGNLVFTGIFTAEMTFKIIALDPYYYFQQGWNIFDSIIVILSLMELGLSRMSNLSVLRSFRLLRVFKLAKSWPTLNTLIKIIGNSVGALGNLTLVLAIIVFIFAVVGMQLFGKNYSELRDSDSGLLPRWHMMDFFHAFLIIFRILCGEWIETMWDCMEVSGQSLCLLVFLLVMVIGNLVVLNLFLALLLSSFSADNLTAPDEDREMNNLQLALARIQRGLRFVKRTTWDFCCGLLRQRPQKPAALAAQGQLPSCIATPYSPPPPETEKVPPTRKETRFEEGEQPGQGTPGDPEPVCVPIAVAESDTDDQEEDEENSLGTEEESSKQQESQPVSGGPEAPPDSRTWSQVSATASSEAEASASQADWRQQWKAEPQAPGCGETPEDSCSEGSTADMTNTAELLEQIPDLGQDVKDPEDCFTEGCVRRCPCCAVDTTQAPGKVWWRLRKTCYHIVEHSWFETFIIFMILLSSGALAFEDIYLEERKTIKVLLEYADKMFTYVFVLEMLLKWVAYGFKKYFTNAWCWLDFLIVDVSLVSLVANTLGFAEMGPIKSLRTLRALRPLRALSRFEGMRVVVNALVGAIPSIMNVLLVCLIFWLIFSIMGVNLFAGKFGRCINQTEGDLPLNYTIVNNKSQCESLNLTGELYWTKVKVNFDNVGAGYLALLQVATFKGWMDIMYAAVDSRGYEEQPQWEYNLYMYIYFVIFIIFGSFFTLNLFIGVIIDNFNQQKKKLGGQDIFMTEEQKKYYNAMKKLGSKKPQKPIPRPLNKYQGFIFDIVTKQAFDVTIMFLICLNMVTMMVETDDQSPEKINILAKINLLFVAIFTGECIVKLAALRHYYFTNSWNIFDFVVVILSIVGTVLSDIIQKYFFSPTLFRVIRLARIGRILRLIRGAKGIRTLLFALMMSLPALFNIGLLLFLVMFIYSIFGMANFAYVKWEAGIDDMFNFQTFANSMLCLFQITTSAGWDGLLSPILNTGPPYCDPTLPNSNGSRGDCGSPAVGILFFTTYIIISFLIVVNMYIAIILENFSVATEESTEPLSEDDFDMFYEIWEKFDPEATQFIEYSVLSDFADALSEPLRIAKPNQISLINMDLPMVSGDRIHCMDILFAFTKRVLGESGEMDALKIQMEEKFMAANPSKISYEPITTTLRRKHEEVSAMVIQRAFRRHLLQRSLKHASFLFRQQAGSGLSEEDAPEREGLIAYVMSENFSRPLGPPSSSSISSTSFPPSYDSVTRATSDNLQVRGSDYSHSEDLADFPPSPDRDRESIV

Row | SMILES | IC50 (Nav 1.7) | IC50 (Nav 1.5) | IC50 (Nav 1.7; in-vitro Nav 1.7 PX data) | further results
1 | COc1cc(-c2cccc(F)c2)c(Cl)cc1-n1c(=O)ccc2cc(S(=O)(=O)Nc3cccnn3)ccc21 (atropisomer, axis not shown; (P)) [Example 467, (P)-1-(2-chloro-3′-fluoro-5-methoxy-[1,1′-biphenyl]-4-yl)-2-oxo-N-(pyridazin-3-yl)-1,2-dihydroquinoline-6-sulfonamide] | 13 nM | > 30 µM | – | –
2 | COc1cc(-c2cc(F)cc(Cl)c2)c(Cl)cc1-n1c(=O)ccc2cc(S(=O)(=O)Nc3ccon3)ccc21 (atropisomer, axis not shown; (P)) [Example 461, (P)-1-(2,3′-dichloro-5′-fluoro-5-methoxy-[1,1′-biphenyl]-4-yl)-N-(isoxazol-3-yl)-2-oxo-1,2-dihydroquinoline-6-sulfonamide] | 6 nM | > 30 µM | – | –
3 | COc1cc(-c2cccc(F)c2)c(Cl)cc1-n1c(=O)ccc2cc(S(=O)(=O)Nc3ccncn3)ccc21 (atropisomer, axis not shown; (P)) [Example 465, (P)-1-(2-chloro-3′-fluoro-5-methoxy-[1,1′-biphenyl]-4-yl)-2-oxo-N-(pyrimidin-4-yl)-1,2-dihydroquinoline-6-sulfonamide] | – | > 30 µM | – | –
4 | COc1cc(-c2ccc(Cl)c(C)c2)c(F)cc1-n1c(=O)ccc2cc(S(=O)(=O)Nc3ncns3)ccc21 [Example 1075, 1-(4′-chloro-2-fluoro-5-methoxy-3′-methyl-4-biphenylyl)-2-oxo-N-1,2,4-thiadiazol-5-yl-1,2-dihydro-6-quinolinesulfonamide] | – | – | 4 nM | IC50 (Nav 1.5; in-vitro Nav 1.5 PX data): > 10 µM
5 | COc1cc(-c2cc(F)cnc2OC)ccc1-n1c(=O)ccc2cc(S(=O)(=O)Nc3ccon3)ccc21 (atropisomer, axis not shown; (P)) [Example 581, (P)-1-(4-(5-fluoro-2-methoxy-3-pyridinyl)-2-methoxyphenyl)-N-3-isoxazolyl-2-oxo-1,2-dihydro-6-quinolinesulfonamide] | 102 nM | > 10 µM | – | –
6 | COc1cc(-c2cccc(F)c2)c(Cl)cc1-n1c(=O)ccc2cc(S(=O)(=O)Nc3nncs3)ccc21 (atropisomer, axis not shown; (P)) [Example 353, (P)-1-(2-chloro-3′-fluoro-5-methoxy-[1,1′-biphenyl]-4-yl)-2-oxo-N-(1,3,4-THIADIAZOL-2-yl)-1,2-dihydroquinoline-6-sulfonamide] | 12 nM | > 30 µM | – | –
7 | COc1cc(-c2ccc(F)c(C)c2)c(F)cc1-n1c(=O)ccc2cc(S(=O)(=O)Nc3ccon3)c(F)cc21 [Example 981, 1-(2,4′-difluoro-5-methoxy-3′-methyl-4-biphenylyl)-7-fluoro-N-3-isoxazolyl-2-oxo-1,2-dihydro-6-quinolinesulfonamide] | – | – | 14 nM | IC50 (Nav 1.5; in-vitro Nav 1.5 PX data): 0.496 µM
8 | COc1cc(-c2cc(OC)c(-n3c(=O)ccc4cc(S(=O)(=O)Nc5ncccn5)ccc43)cc2F)ccc1Cl (atropisomer, axis not shown; (P)) [Example 685, (P)-1-(4′-chloro-2-fluoro-3′,5-dimethoxy-4-biphenylyl)-2-oxo-N-2-pyrimidinyl-1,2-dihydro-6-quinolinesulfonamide] | – | – | – | IC50 (Nav 1.5; [1]): > 10 µM
9 | COc1cc(Cl)cc(-c2cc(OC)c(-n3c(=O)ccc4cc(S(=O)(=O)Nc5ncccn5)ccc43)cc2F)c1 [Example 924, 1-(3′-chloro-2-fluoro-5,5′-dimethoxy-4-biphenylyl)-2-oxo-N-2-pyrimidinyl-1,2-dihydro-6-quinolinesulfonamide] | – | – | 14 nM | IC50 (Nav 1.5; in-vitro Nav 1.5 PX data): > 10 µM
10 | COc1cc(-c2cc(F)cc(Cl)c2)c(F)cc1-n1c(=O)ccc2cc(S(=O)(=O)Nc3ccon3)ccc21 (atropisomer, axis not shown; (P)) [Example 477, (P)-1-(3′-chloro-2,5′-difluoro-5-methoxy-4-biphenylyl)-N-3-isoxazolyl-2-oxo-1,2-dihydro-6-quinolinesulfonamide] | 7 nM | > 30 µM | – | –
11 | COc1cc(-c2cccc(C(F)(F)F)c2)c(Cl)cc1-n1c(=O)ccc2cc(S(=O)(=O)Nc3ccon3)ccc21 (atropisomer, axis not shown; (P)) [Example 533, (P)-1-(2-chloro-5-methoxy-3′-(trifluoromethyl)-[1,1′-biphenyl]-4-yl)-N-(isoxazol-3-yl)-2-oxo-1,2-dihydroquinoline-6-sulfonamide] | 4 nM | > 30 µM | – | –
12 | COc1cc(-c2cc(OC)c(-n3c(=O)ccc4cc(S(=O)(=O)Nc5ccon5)ccc43)cc2F)ccc1C [Example 698, 1-(2-fluoro-3′,5-dimethoxy-4′-methyl-4-biphenylyl)-N-3-isoxazolyl-2-oxo-1,2-dihydro-6-quinolinesulfonamide] | – | – | 14 nM | IC50 (Nav 1.5; in-vitro Nav 1.5 PX data): > 10 µM
13 | COc1cc(-c2cc(OC)c(-n3c(=O)ccc4cc(S(=O)(=O)Nc5cccnn5)ccc43)cc2F)ccc1Cl (atropisomer, axis not shown; (P)) [Example 628, (P)-1-(4′-chloro-2-fluoro-3′,5-dimethoxy-4-biphenylyl)-2-oxo-N-3-pyridazinyl-1,2-dihydro-6-quinolinesulfonamide] | – | – | – | IC50 (Nav 1.5; [1]): > 10 µM
14 | COc1cc(-c2cccc(C(F)(F)F)c2)ccc1-n1c(=O)ccc2cc(S(=O)(=O)Nc3ncc(F)cn3)ccc21 [Example 917, N-(5-fluoro-2-pyrimidinyl)-1-(3-methoxy-3′-(trifluoromethyl)-4-biphenylyl)-2-oxo-1,2-dihydro-6-quinolinesulfonamide] | – | – | 31 nM | –
